Test results as given in the supplement of paper PMC11061612.

Key:
[1] = tested on: KYSE-140 (Esophageal Squamous Cell Carcinoma); assay: Bliss excess, mean over the matrix (fraction); higher = more synergy
Summary of the method: (§1)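 Cell lines in DMEM/F12 or RPMI with 10% FBS were plated in 1536-well plates, held 24 hours at 37°C, 5% CO2, then given two-drug dose matrices for 72 hours (DMSO typically 0.2%). Viability was read by CellTiter-Glo 2.0 luminescence and scaled as inhibition from 0 (vehicle wells) to 1 (blank wells). Combination Emax is the second-highest inhibition in the matrix; Bliss excess is observed combination effect minus expected EA + EB − EA·EB, EA and EB being single-agent effects.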

5637 (Bladder Carcinoma) = assay: as above
Summary of the method: as §1

[2] = tested on: JIMT-1 (Breast Carcinoma); assay: as above
Summary of the method: as §1

[3] = tested on: NCI-H2228 (Lung Adenocarcinoma); assay: as above
Summary of the method: as §1

[4] = tested on: A253 (Head and Neck Carcinoma); assay: as above
Summary of the method: as §1

[5] = tested on: GCT (Other Solid Carcinomas); assay: as above
Summary of the method: as §1

[6] = tested on: HCC1428 (Breast Carcinoma); assay: as above
Summary of the method: as §1

[7] = tested on: EPLC-272H (Other Solid Carcinomas); assay: as above
Summary of the method: as §1

[8] = tested on: CAL-27 (Oral Cavity Carcinoma); assay: as above
Summary of the method: as §1

[9] = tested on: LS-411N (Colorectal Carcinoma); assay: as above
Summary of the method: as §1

[10] = tested on: ESO26 (Esophageal Adenocarcinoma); assay: as above
Summary of the method: as §1

[11] = tested on: huH-1 (Hepatocellular Carcinoma); assay: as above
Summary of the method: as §1

AU565 (Breast Carcinoma) = assay: as above
Summary of the method: as §1

A204 (Rhabdomyosarcoma) = assay: as above
Summary of the method: as §1

[12] = tested on: GA-10 (Burkitt's Lymphoma); assay: as above
Summary of the method: as §1

A101D (Melanoma) = assay: as above
Summary of the method: as §1

[13] = tested on: TE-10 (Esophageal Squamous Cell Carcinoma); assay: as above
Summary of the method: as §1

RH-41 (Rhabdomyosarcoma) = assay: as above
Summary of the method: as §1

NB13 (Neuroblastoma) = assay: as above
Summary of the method: as §1

[14] = tested on: CAL-27 (Oral Cavity Carcinoma); assay: combination Emax (second highest fraction inhibited in the dose matrix, 72 h); higher = more inhibition; extreme values may be limits of the assay
Summary of the method: as §1
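Throughout, for Bliss excess, mean over the matrix: after 72 h of two-drug dosing.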

Compound	Bliss excess [1]	Bliss excess (5637 (Bladder Carcinoma))	Bliss excess [2]	Bliss excess [3]	Bliss excess [4]	Bliss excess [5]	Bliss excess [6]	Bliss excess [7]	Bliss excess [8]	Bliss excess [9]	Bliss excess [10]	Bliss excess [11]	Bliss excess (AU565 (Breast Carcinoma))	Bliss excess (A204 (Rhabdomyosarcoma))	Bliss excess [12]	Bliss excess (A101D (Melanoma))	Bliss excess [13]	Bliss excess (RH-41 (Rhabdomyosarcoma))	Bliss excess (NB13 (Neuroblastoma))	combination Emax [14]
CN(CCO)CC[C@H](CSc1ccccc1)Nc1ccc(S(=O)(=O)NC(=O)c2ccc(N3CCC([C@@H](O)c4ccccc4-c4ccc(Cl)cc4)CC3)cc2)cc1S(=O)(=O)C(F)(F)F [AZD4320] + C1CN(CCC1(C(=O)N[C@@H](CCO)C2=CC=C(C=C2)Cl)N)C3=NC=NC4=C3C=CN4 [Capivasertib] (first compound max 1 µM, 7x7, partner max 3 µM)	-0.0432	-0.0471	-0.0424	-0.0392	-0.0035	-0.021	-0.0092	-0.0089	-0.0362	-0.048	-0.0271	-0.0215	0.0161	-0.0393	-0.0283	-0.0695	-0.0212	-0.0159	0.0174	0.191
CN(CCO)CC[C@H](CSc1ccccc1)Nc1ccc(S(=O)(=O)NC(=O)c2ccc(N3CCC([C@@H](O)c4ccccc4-c4ccc(Cl)cc4)CC3)cc2)cc1S(=O)(=O)C(F)(F)F [AZD4320] + C=CCn1c(=O)c2cnc(Nc3ccc(N4CCN(C)CC4)cc3)nc2n1-c1cccc(C(C)(C)O)n1 [AZD1775] (first compound max 1 µM, partner max 1 µM)	-0.0161	0.0437	0.0363	-0.0344	0.0503	-0.0363	0.0369	-0.0069	-0.0226	0.0549	-0.0318	0.01	0.0571	-0.0304	-0.0167	0.14	-0.0084	0.0873	0.0475	0.364
CN(CCO)CC[C@H](CSc1ccccc1)Nc1ccc(S(=O)(=O)NC(=O)c2ccc(N3CCC([C@@H](O)c4ccccc4-c4ccc(Cl)cc4)CC3)cc2)cc1S(=O)(=O)C(F)(F)F [AZD4320] + C[C@@H]1COCCN1C2=NC(=NC(=C2)C3(CC3)[S@](=N)(=O)C)C4=C5C=CNC5=NC=C4 [AZD6738] (first compound max 1 µM, 7x7, partner max 10 µM)	-0.0299	-0.05	0.0079	-0.0628	0.0045	-0.0313	0.0184	-0.0244	-0.0544	0.0135	-0.0439	0.0215	0.0419	-0.0207	-0.0075	0.046	-0.0265	-0.0086	-0.0167	0.498
Cc1cc2ncnn2cc1Nc1ncc2c(n1)n(C1CCOCC1)c(=O)n2C [AZD7648] + C[C@@H]1COCCN1C2=NC(=NC(=C2)C3(CC3)[S@](=N)(=O)C)C4=C5C=CNC5=NC=C4 [AZD6738] (first compound max 10 µM, 7x7, partner max 10 µM)	-0.0248	-0.0289	-0.0238	-0.0156	0.0402	0.0097	-0.0086	-0.0093	-0.0327	-0.0185	-0.0389	0.02	0.0393	-0.0105	0.0131	-0.0272	0.0327	0.0098	-0.0124	0.431
Cc1cc2ncnn2cc1Nc1ncc2c(n1)n(C1CCOCC1)c(=O)n2C [AZD7648] + O=C(c1cc(Cc2n[nH]c(=O)c3ccccc23)ccc1F)N1CCN(C(=O)C2CC2)CC1 [Olaparib] (first compound max 10 µM, 7x7, partner max 10 µM)	-0.0146	-0.0198	-0.0191	-0.0728	-0.0419	-0.0488	-0.0562	0.0608	-0.0448	-0.0195	-0.003	-0.0557	-0.0658	-0.0802	-0.0398	-0.0478	0.011	-0.0293	-0.0247	0.347
COc1cc2c(cc1OCCCCCOc1cc3c(cc1OC)C(=O)N1C=C(C)C[C@H]1C=N3)N=C[C@@H]1CC(C)=CN1C2=O [SG3199] + O=C(c1cc(Cc2n[nH]c(=O)c3ccccc23)ccc1F)N1CCN(C(=O)C2CC2)CC1 [Olaparib] (first compound max 0.001 µM, 7x7, partner max 10 µM)	-0.0186	-0.0278	-0.0188	-0.0607	-0.0426	-0.0325	-0.0676	-0.0023	-0.0664	-0.0255	0.0119	-0.0278	-0.0315	-0.0686	-0.0335	-0.0365	-0.0402	0.0396	-0.0143	0.288
Cc1cc2ncnn2cc1Nc1ncc2c(n1)n(C1CCOCC1)c(=O)n2C [AZD7648] + C=CCn1c(=O)c2cnc(Nc3ccc(N4CCN(C)CC4)cc3)nc2n1-c1cccc(C(C)(C)O)n1 [AZD1775] (first compound max 10 µM, partner max 1 µM)	0.0004	0.0026	0.0463	0.0384	0.0493	-0.0309	0.0179	0.0042	0.0108	-0.0318	-0.0641	0.0313	-0.043	-0.0041	0.037	0.0275	0.0053	0.0157	-0.0531	0.345
CN(CCO)CC[C@H](CSc1ccccc1)Nc1ccc(S(=O)(=O)NC(=O)c2ccc(N3CCC([C@@H](O)c4ccccc4-c4ccc(Cl)cc4)CC3)cc2)cc1S(=O)(=O)C(F)(F)F [AZD4320] + C[C@@H](Nc1cc(F)cc(F)c1)c1cc(C(=O)N(C)C)cc2c(=O)cc(N3CCOCC3)oc12 [AZD8186] (first compound max 1 µM, 7x7, partner max 3 µM)	-0.0136	-0.0028	0.0064	-0.0301	0.0229	0.0052	0.0149	0.0633	0.0005	0.031	0.0217	-0.0461	0.035	0.0119	0.0166	0.0831	0.0157	0.0706	0.0205	0.659
CN(CCO)CC[C@H](CSc1ccccc1)Nc1ccc(S(=O)(=O)NC(=O)c2ccc(N3CCC([C@@H](O)c4ccccc4-c4ccc(Cl)cc4)CC3)cc2)cc1S(=O)(=O)C(F)(F)F [AZD4320] + Cc1cc2ncnn2cc1Nc1ncc2c(n1)n(C1CCOCC1)c(=O)n2C [AZD7648] (first compound max 1 µM, 7x7, partner max 10 µM)	-0.0866	-0.0359	-0.0513	-0.0231	-0.0253	-0.0504	0.025	-0.0318	-0.0355	-0.0132	-0.0208	-0.0586	-0.0132	-0.0551	-0.0669	-0.0275	-0.0276	0.0309	-0.0223	0.0955
